According to patent US20240173339A1, “CANNABINOID FORMULATION FOR MANAGEMENT OF DEPRESSION, ANXIETY AND PTSD, AND CANNABINOID FORMULATION AS A SLEEP AID” (Zyus Life Sciences Inc., priority 2021, published 2024):
“And” between values parts separate entries of the source, which are not always exact repeats. Equal entries are not always repeated. Where two headings read alike, the source gives them in different places.

What was measured:
[1] = test system: rodents; details: in vivo; cited from earlier work
[2] = target: CB2 receptors (Homo sapiens, UniProt P34972); details: read-out: affinity (Ki) for CB2 receptors; cited from earlier work
[3] = test system: CRS mice; experiment: Elevated Plus Maze (EPM) in chronic restraint stress mouse model; format: in vivo, BALB/c mice; details: i.p., CBD 10 mg/kg, CBC 20 mg/kg, or both
Procedure: (§1) D0-D14: Development of Depression Model by Chronic Restraint Stimulation (CRS) 1 hour per day.
(§2) D15: Treatment of Control and CRS mice (i.p injection of Cannabinoids or Vehicle).
D16: Elevated plus maze test (EPM) (Replicate 1).
D17: Elevated plus maze test (EPM) (Replicate 2).
(§3) Mouse Species. Adult male BALB/c mice were purchased from Charles River Laboratories.
(§4) Distress Model. Adult male BALB/c mice weighing 20-30 g were used for these experiments. Total 160 animals=10 animals/group×8 treatment groups×2 replicates. The mice groups were as following: • 1. Stress Group: Chronic Restraint Stimulation (CRS): N=80 mice • 2. Control Group: No distress […] CRS: N=80 mice
(§5) Group 2—Treatment with CBD (10 mg/kg)
(§6) Group 3—Treatment with CBC (20 mg/kg)
(§7) Group 4—Co-Treatment CBD (10 mg/kg)+CBC (20 mg/kg)
(§8) • Forced Swim Test (FST) • Elevated Plus Maze (EPM) • Open-Field Test (OFT) • Tail Suspension Test (TST)

[4] = target: CB1 receptors (Homo sapiens, UniProt P21554); details: cited from earlier work
[5] = in vivo; cited from earlier work
[6] = test system: rodents; details: cited from earlier work
[7] = test system: CRS mice; experiment: Forced Swim Test (FST) in CRS mice; format: in vivo, BALB/c mice; details: CBC 20 mg/kg; for anti-depressive effect (reduction of immobility time and greater movement distance in FST): CBD 10 mg/kg, CBD+CBC 10 and 20 mg/kg
Procedure: as §1, §2
D19: Forced swim test (FST).
as §3, §4, §5, §6, §7, §8

[8] = test system: rats; details: cited from earlier work
[9] = cited from earlier work

Sequence of CB1 receptors (P21554 whole entry): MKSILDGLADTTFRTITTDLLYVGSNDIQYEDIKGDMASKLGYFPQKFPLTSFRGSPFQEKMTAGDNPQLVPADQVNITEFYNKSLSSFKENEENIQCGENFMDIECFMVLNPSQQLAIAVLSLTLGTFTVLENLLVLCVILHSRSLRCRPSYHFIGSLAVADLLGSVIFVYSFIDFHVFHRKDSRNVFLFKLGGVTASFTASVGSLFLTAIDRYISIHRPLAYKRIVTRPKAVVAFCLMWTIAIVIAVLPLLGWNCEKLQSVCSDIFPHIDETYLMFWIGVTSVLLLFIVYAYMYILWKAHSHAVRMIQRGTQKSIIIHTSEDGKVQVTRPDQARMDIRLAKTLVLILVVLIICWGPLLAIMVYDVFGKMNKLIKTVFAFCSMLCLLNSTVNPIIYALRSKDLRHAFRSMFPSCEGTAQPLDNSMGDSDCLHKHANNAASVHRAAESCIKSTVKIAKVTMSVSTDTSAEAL
Sequence of CB2 receptors (P34972 whole entry): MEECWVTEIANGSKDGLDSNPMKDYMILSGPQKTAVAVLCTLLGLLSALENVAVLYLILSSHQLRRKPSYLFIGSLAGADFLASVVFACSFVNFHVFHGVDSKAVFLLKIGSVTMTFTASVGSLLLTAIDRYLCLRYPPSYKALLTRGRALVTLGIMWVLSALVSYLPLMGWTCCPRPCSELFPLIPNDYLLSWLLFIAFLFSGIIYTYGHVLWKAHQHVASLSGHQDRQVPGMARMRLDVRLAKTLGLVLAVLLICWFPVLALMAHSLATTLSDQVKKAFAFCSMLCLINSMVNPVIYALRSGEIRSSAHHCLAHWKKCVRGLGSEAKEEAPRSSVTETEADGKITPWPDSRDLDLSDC

Structure (SMILES) | dose with significant antidepressant effect on FST [1] [mg/kg] | Ki [2] [nM] | mobility in Elevated Plus Maze (EPM) [3] | concentration at which it binds to CB1 receptors [4] | dose causing decreased locomotor activity [5] | dose with significant antidepressant effect on TST ([6]; in vivo) | FST immobility compared to Vehicle ([7]; CBD+CBC 10+20 mg/kg) | anti-depressive effect (reduction of immobility time and greater movement distance in FST) [7] | dose showing anti-inflammatory and immunomodulatory effects [8] [mg/kg] | anti-anxiety effect ([9]; high dose (100 mg/kg)) | anti-anxiety effect ([9]; low dose (10 mg/kg)) | change on TST ([6]; at any dose)
CCCCCc1cc(O)c2c(c1)OC(C)(CCC=C(C)C)C=C2 (stereo not drawn) [CBC, cannabichromene] | 20 | ~100 | significantly higher mobility | higher than 1 micromolar | 80 mg/kg and 100 mg/kg | 40 mg/kg and 80 mg/kg | marked reduction of immobility | significant anti-depressive effect | – | – | – | –
C=C(C)[C@@H]1CCC(C)=C[C@H]1c1c(O)cc(CCCCC)cc1O [CBD, cannabidiol, reference compound] | – | – | significantly higher mobility | – | 200 mg/kg | – | – | significant anti-depressive effect | 5 to 20 | failed | effective | did not cause a significant change
